Results on 15 molecules are retold here after the supplement of paper PMC10627819.

Each structure is given as a SMILES string.

Experiment in all cases: Bliss interaction score (quartile over a dose matrix) (fitness difference); higher = more antagonism (negative = synergy)
One assay deals with B. subtilis 168. An outline of the steps: (§1)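 Values were capped at 1 after dividing OD595 at stationary-phase entry by the plate's robust no-drug mean. This ratio is fitness, and single-drug fitness was inferred from the combination data. The Bliss score is observed minus product-expected fitness, given as quartiles over technical, biological and donor/recipient replicates.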

The next assay concerns S. aureus Newman. A digest of the protocol:
as §1

The next assay deals with S. pneumoniae D39V. A digest of the protocol: as §1
The subject of another assay is S. aureus DSM 20231. A digest of the protocol: as §1
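Further: first quartile when negative (synergy) and third quartile when positive (antagonism).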

For the molecule `CC[C@H]1OC(=O)[C@H](C)[C@@H](O[C@H]2C[C@@](C)(OC)[C@@H](O)[C@H](C)O2)[C@H](C)[C@@H](O[C@@H]2O[C@H](C)C[C@H](N(C)C)[C@H]2O)[C@](C)(O)C[C@@H](C)CN(C)[C@H](C)[C@@H](O)[C@]1(C)O` [Azithromycin] + O=C1CN(/N=C/c2ccc([N+](=O)[O-])o2)C(=O)N1 [Nitrofurantoin], the Bliss interaction score in the assay on B. subtilis 168 is -0.117; in the assay with S. aureus Newman, -0.0835; in the assay on S. pneumoniae D39V, -0.215; in the assay with S. aureus DSM 20231, -0.0881.

On to `CC[C@H]1OC(=O)[C@H](C)[C@@H](O[C@H]2C[C@@](C)(OC)[C@@H](O)[C@H](C)O2)[C@H](C)[C@@H](O[C@@H]2O[C@H](C)C[C@H](N(C)C)[C@H]2O)[C@](C)(O)C[C@@H](C)CN(C)[C@H](C)[C@@H](O)[C@]1(C)O` [Azithromycin] + O=C(O)[C@H]1/C(=C/CO)O[C@@H]2CC(=O)N21 [Clavulanic], for which the Bliss interaction score is 0.115 in the assay on B. subtilis 168, 0.239 in the assay on S. aureus Newman, -0.0573 in the assay on S. pneumoniae D39V and -0.136 in the assay on S. aureus DSM 20231.

As to `CC[C@H]1OC(=O)[C@H](C)[C@@H](O[C@H]2C[C@@](C)(OC)[C@@H](O)[C@H](C)O2)[C@H](C)[C@@H](O[C@@H]2O[C@H](C)C[C@H](N(C)C)[C@H]2O)[C@](C)(O)C[C@@H](C)CN(C)[C@H](C)[C@@H](O)[C@]1(C)O` [Azithromycin] + Oc1cc(Cl)ccc1Oc1ccc(Cl)cc1Cl [Triclosan], the Bliss interaction score in the assay with B. subtilis 168 was -0.0359; in the assay on S. aureus Newman, -0.0316; in the assay on S. pneumoniae D39V, -0.0322; with S. aureus DSM 20231, -0.133.

As for `CC1=C(C(=O)O)N2C(=O)[C@@H](NC(=O)[C@H](N)c3ccccc3)[C@H]2SC1` [Cephalexin] + CC1(C)S[C@@H]2[C@H](NC(=O)Cc3ccccc3)C(=O)N2[C@H]1C(=O)O [PenicillinG], the Bliss interaction score was 0.0543 with B. subtilis 168, -0.0472 in the assay on S. aureus Newman, -0.199 in the assay with S. pneumoniae D39V and -0.0449 in the assay on S. aureus DSM 20231.

With `CC1=C(C(=O)O)N2C(=O)[C@@H](NC(=O)[C@H](N)c3ccccc3)[C@H]2SC1` [Cephalexin] + CC(=O)O[C@H]1C[C@@]2(C)[C@@H](C[C@@H](O)[C@H]3[C@@]4(C)CC[C@@H](O)[C@@H](C)[C@@H]4CC[C@@]32C)/C1=C(\CCC=C(C)C)C(=O)O [Fusidic acid], the Bliss interaction score is 0.0683 in the assay on B. subtilis 168, 0.0547 in the assay on S. aureus Newman, 0.143 with S. pneumoniae D39V and 0.0436 with S. aureus DSM 20231.

As for `CC1=C(C(=O)O)N2C(=O)[C@@H](NC(=O)[C@H](N)c3ccccc3)[C@H]2SC1` [Cephalexin] + CC(C1CCC(C(O1)OC2C(CC(C(C2O)OC3C(C(C(CO3)(C)O)NC)O)N)N)N)NC [Gentamicin], the Bliss interaction score was -0.0985 in the assay with B. subtilis 168 (main component drawn), -0.018 with S. aureus Newman (main component drawn), -0.132 in the assay on S. pneumoniae D39V (main component drawn) and -0.0632 in the assay on S. aureus DSM 20231 (main component drawn).

With `CC1=C(C(=O)O)N2C(=O)[C@@H](NC(=O)[C@H](N)c3ccccc3)[C@H]2SC1` [Cephalexin] + CCC[C@@H]1C[C@@H](C(=O)N[C@@H]([C@H]2O[C@H](SC)[C@H](O)[C@@H](O)[C@H]2O)[C@H](C)Cl)N(C)C1 [Clindamycin], the Bliss interaction score was -0.0509 in the assay with B. subtilis 168, 0.138 in the assay on S. aureus Newman, 0.14 with S. pneumoniae D39V and -0.0563 with S. aureus DSM 20231.

Regarding `CC1=C(C(=O)O)N2C(=O)[C@@H](NC(=O)[C@H](N)c3ccccc3)[C@H]2SC1` [Cephalexin] + CC[C@H]1OC(=O)[C@H](C)C(=O)[C@H](C)[C@@H](O[C@@H]2O[C@H](C)C[C@H](N(C)C)[C@H]2O)[C@](C)(OC)C[C@@H](C)C(=O)[C@H](C)[C@H]2N(CCCCn3cnc(-c4cccnc4)c3)C(=O)O[C@]12C [Telithromycin], the Bliss interaction score with B. subtilis 168 was found to be 0.0293; in the assay with S. aureus Newman, 0.0476; in the assay on S. pneumoniae D39V, 0.0359; with S. aureus DSM 20231, 0.0639.

With `CC1=C(C(=O)O)N2C(=O)[C@@H](NC(=O)[C@H](N)c3ccccc3)[C@H]2SC1` [Cephalexin] + CC[C@H]1OC(=O)[C@H](C)[C@@H](O[C@H]2C[C@@](C)(OC)[C@@H](O)[C@H](C)O2)[C@H](C)[C@@H](O[C@@H]2O[C@H](C)C[C@H](N(C)C)[C@H]2O)[C@](C)(O)C[C@@H](C)C(=O)[C@H](C)[C@@H](O)[C@]1(C)O [Erythromycin], the Bliss interaction score was -0.0405 in the assay with B. subtilis 168, 0.0826 in the assay with S. aureus Newman, 0.0656 with S. pneumoniae D39V and -0.0356 in the assay with S. aureus DSM 20231.

Consider `CC1=C(C(=O)O)N2C(=O)[C@@H](NC(=O)[C@H](N)c3ccccc3)[C@H]2SC1` [Cephalexin] + CC[C@H]1OC(=O)[C@H](C)[C@@H](O[C@H]2C[C@@](C)(OC)[C@@H](O)[C@H](C)O2)[C@H](C)[C@@H](O[C@@H]2O[C@H](C)C[C@H](N(C)C)[C@H]2O)[C@](C)(OC)C[C@@H](C)C(=O)[C@H](C)[C@@H](O)[C@]1(C)O [Clarithromycin], for which the Bliss interaction score amounted to 0.0576 in the assay with B. subtilis 168, 0.0874 in the assay on S. aureus Newman, 0.0361 in the assay on S. pneumoniae D39V and 0.0663 with S. aureus DSM 20231.

On to `CC1=C(C(=O)O)N2C(=O)[C@@H](NC(=O)[C@H](N)c3ccccc3)[C@H]2SC1` [Cephalexin] + CN(C)[C@@H]1C(O)=C(C(N)=O)C(=O)[C@@]2(O)C(O)=C3C(=O)c4c(O)ccc(Cl)c4[C@@](C)(O)[C@H]3C[C@@H]12 [Clortetracycline], for which the Bliss interaction score with B. subtilis 168 amounted to 0.0862; in the assay with S. aureus Newman, 0.104; with S. pneumoniae D39V it was 0.0348; with S. aureus DSM 20231 it was 0.0869.

Take `CC1=C(C(=O)O)N2C(=O)[C@@H](NC(=O)[C@H](N)c3ccccc3)[C@H]2SC1` [Cephalexin] + CN[C@H](CC(C)C)C(=O)N[C@H]1C(=O)N[C@@H](CC(N)=O)C(=O)N[C@H]2C(=O)N[C@H]3C(=O)N[C@H](C(=O)N[C@H](C(=O)O)c4cc(O)cc(O)c4-c4cc3ccc4O)[C@H](O[C@H]3C[C@](C)(N)[C@@H](O)[C@H](C)O3)c3ccc(c(Cl)c3)Oc3cc2cc(c3O[C@@H]2O[C@H](CO)[C@@H](O)[C@H](O)[C@H]2O[C@H]2C[C@](C)(NCc3ccc(-c4ccc(Cl)cc4)cc3)[C@@H](O)[C@H](C)O2)Oc2ccc(cc2Cl)[C@H]1O [Oritavancin]: the Bliss interaction score in the assay with B. subtilis 168 stood at 0.0217; in the assay with S. aureus Newman, 0.104; in the assay with S. pneumoniae D39V it was 0.069; in the assay on S. aureus DSM 20231 it was 0.0767.

For the molecule `CC1=C(C(=O)O)N2C(=O)[C@@H](NC(=O)[C@H](N)c3ccccc3)[C@H]2SC1` [Cephalexin] + CO[C@@]12[C@H](COC(N)=O)C3=C(C(=O)C(C)=C(N)C3=O)N1C[C@@H]1N[C@@H]12 [MitomycinC], the Bliss interaction score is -0.0415 in the assay on B. subtilis 168, 0.0613 in the assay with S. aureus Newman, -0.0789 in the assay on S. pneumoniae D39V and 0.0608 in the assay with S. aureus DSM 20231.

In the case of `CC1=C(C(=O)O)N2C(=O)[C@@H](NC(=O)[C@H](N)c3ccccc3)[C@H]2SC1` [Cephalexin] + COc1cccc2c1C(=O)c1c(O)c3c(c(O)c1C2=O)C[C@@](O)(C(=O)CO)C[C@@H]3O[C@H]1C[C@H](N)[C@H](O)[C@H](C)O1 [Doxorubicin], the Bliss interaction score was 0.084 with B. subtilis 168, -0.0552 in the assay with S. aureus Newman, -0.111 in the assay on S. pneumoniae D39V and 0.0343 in the assay on S. aureus DSM 20231.

For `CC1=C(C(=O)O)N2C(=O)[C@@H](NC(=O)[C@H](N)c3ccccc3)[C@H]2SC1` [Cephalexin] + C[C@@H]1O[C@@H]1P(=O)(O)O [Fosfomycin], the Bliss interaction score with B. subtilis 168 was -0.0491; with S. aureus Newman, 0.134; in the assay with S. pneumoniae D39V it was -0.111; in the assay on S. aureus DSM 20231 it was 0.038.
